Test results: patent US8354403B2, “Pyrrolidine derived beta 3 adrenergic receptor agonists” (Merck Sharp & Dohme Corp., priority 2009, dated 2013)
Where two headings read alike, the source gives them in different places.

Experiments:
β3AR = target: T1, β3AR (Rattus norvegicus, UniProt P26255); settings: rats, intravenous administration, cited from earlier work
T1 construct: host or cells: live rats (bladder, in vivo)

[1] = target: T2, human β3 adrenergic receptor (Homo sapiens, UniProt P13945); test: Beta-3 agonist in vitro functional assay: cAMP production (LANCE TR-FRET) in CHO cells stably transfected with the cloned β3 receptor; assay type: cell-based
T2 construct: expressed in transfected cells; host or cells: Chinese hamster ovary (CHO) cells, stably transfected
T2 sequence (P13945 whole entry): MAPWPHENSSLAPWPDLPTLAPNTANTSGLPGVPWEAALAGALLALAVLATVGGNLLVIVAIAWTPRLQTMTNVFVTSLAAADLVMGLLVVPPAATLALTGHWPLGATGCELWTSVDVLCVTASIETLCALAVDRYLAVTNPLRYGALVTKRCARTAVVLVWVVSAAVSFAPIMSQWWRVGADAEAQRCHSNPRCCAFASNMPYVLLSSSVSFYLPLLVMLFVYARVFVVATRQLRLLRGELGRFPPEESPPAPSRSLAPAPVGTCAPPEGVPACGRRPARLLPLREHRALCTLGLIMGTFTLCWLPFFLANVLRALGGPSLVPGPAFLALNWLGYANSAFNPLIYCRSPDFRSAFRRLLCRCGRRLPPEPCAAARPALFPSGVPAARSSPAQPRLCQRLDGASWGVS
How it was run: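 CHO cells stably expressing the cloned receptor, in HEPES-buffered HBSS with BSA and 0.6 mM IBMX, 6,000 cells/well, exposed to compound for 30 min at RT. cAMP read by LANCE TR-FRET against a cAMP standard curve. Isoproterenol defines maximal stimulation.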

[2] = Table 11, cAMP, CHO cells, read-out: Human β3 agonist functional activity
[3] = Table 13, human Beta-3 agonist functional activity given as range, read-out: Human β3 agonist functional activities

T1 sequence (P26255 whole entry): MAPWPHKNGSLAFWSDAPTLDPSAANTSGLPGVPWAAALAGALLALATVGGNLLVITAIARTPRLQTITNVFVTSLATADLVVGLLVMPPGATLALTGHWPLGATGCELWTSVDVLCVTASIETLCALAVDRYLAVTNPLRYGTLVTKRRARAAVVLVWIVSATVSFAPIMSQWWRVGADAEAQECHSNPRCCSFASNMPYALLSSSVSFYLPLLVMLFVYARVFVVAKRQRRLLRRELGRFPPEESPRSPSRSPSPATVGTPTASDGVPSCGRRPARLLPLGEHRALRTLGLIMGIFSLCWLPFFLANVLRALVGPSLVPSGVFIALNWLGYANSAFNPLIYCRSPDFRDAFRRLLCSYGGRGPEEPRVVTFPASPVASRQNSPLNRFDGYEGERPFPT

Structure (SMILES)	EC50 [1, 2] [nM]	also measured
C[C@H](Cc1ccc2c(c1)OC(C(=O)[O-])(C(=O)[O-])O2)NC[C@H](O)c1cccc(Cl)c1.[Na+].[Na+] [CL316243]	–	bladder capacity (β3AR; cystometric studies): increases bladder capacity; micturition interval (β3AR; cystometric studies): prolongation of micturition interval; residual urine volume (β3AR; cystometric studies): without increasing residual urine volume; bladder pressure (β3AR): reduces bladder pressure
O=C(c1ccc(C[C@@H]2CC[C@H]([C@H](O)c3ccccc3)N2)cc1)N1C2CCC1C1CCC2N1Cc1ccccn1 [Example 524, (R)-phenyl[(2R,5S)-5-(4-{[10-(pyridin-2-ylmethyl)-9,10-diazatricyclo[4.2.1.1^2,5]dec-9-yl]carbonyl}benzyl)pyrrolidin-2-yl]methanol]	–	EC50 ([1]; given as a range, cAMP, CHO cells, read-out: human β3 functional activity): 10 to 99.9 nM
C[C@H](c1ccccn1)N1C2CCC1C1CCC2N1C(=O)c1ccc(C[C@@H]2CC[C@H]([C@H](O)c3ccccc3)N2)cc1 [Example 525]	–	EC50 ([1]; human β3 functional activity): 10 to 99.9 nM
C[C@@H](c1ccccn1)N1C2CCC1C1CCC2N1C(=O)c1ccc(C[C@@H]2CC[C@H]([C@H](O)c3ccccc3)N2)cc1 [Example 526]	–	EC50 ([1]; human β3 functional activity): 10 to 99.9 nM
C[C@@H]1CN(C(=O)c2ccc(C[C@@H]3CC[C@H]([C@H](O)c4ccccc4)N3)cc2)CCN1Cc1ccccn1 [Example 527]	10 to 99.9	–
C[C@H]1CN(C(=O)c2ccc(C[C@@H]3CC[C@H]([C@H](O)c4ccccc4)N3)cc2)CCN1Cc1ccccn1 [Example 528]	10 to 99.9	–
C[C@@H]1CN(Cc2ccccn2)CCN1C(=O)c1ccc(C[C@@H]2CC[C@H]([C@H](O)c3ccccc3)N2)cc1 [Example 529]	100 to 999	–
C[C@H]1CN(Cc2ccccn2)CCN1C(=O)c1ccc(C[C@@H]2CC[C@H]([C@H](O)c3ccccc3)N2)cc1 [Example 530]	10 to 99.9	–
C[C@H]1CN(C(=O)c2ccc(C[C@@H]3CC[C@H]([C@H](O)c4ccccc4)N3)cc2)CCN1Cc1nc2ccccc2o1 [Example 531]	10 to 99.9	–
C[C@H]1CN(C(=O)c2ccc(C[C@@H]3CC[C@H]([C@H](O)c4ccccc4)N3)cc2)CCN1Cc1n[nH]c2ccccc12 [Example 532]	10 to 99.9	–
C[C@@H]1CN(C(=O)c2ccc(C[C@@H]3CC[C@H]([C@H](O)c4ccccc4)N3)cc2)C[C@H](C)N1Cc1ccccn1 [Example 533]	100 to 999	–
O=C(c1ccc(C[C@@H]2CC[C@H]([C@H](O)c3ccccc3)N2)cc1)N1CC2CC1CN2Cc1ccccn1 (stereo partly drawn) [Example 534]	100 to 999	–
O=C(c1ccc(C[C@@H]2CC[C@H]([C@H](O)c3ccccc3)N2)cc1)N1CC2CCC(C1)N2Cc1ccccn1 [Example 535]	100 to 999	–
O=C(c1ccc(C[C@@H]2CC[C@H]([C@H](O)c3ccccc3)N2)cc1)N1CC2CCC1CN2Cc1ccccn1 (stereo partly drawn) [Example 536]	100 to 999	–
C[C@H](c1ccccn1)N1CC2CC1CN2C(=O)c1ccc(C[C@@H]2CC[C@H]([C@H](O)c3ccccc3)N2)cc1 (stereo partly drawn) [Example 537]	100 to 999	–
C[C@@H](c1ccccn1)N1CC2CC1CN2C(=O)c1ccc(C[C@@H]2CC[C@H]([C@H](O)c3ccccc3)N2)cc1 (stereo partly drawn) [Example 538]	100 to 999	–
CC(c1ccccn1)N1C2CCC1CN(C(=O)c1ccc(CC3CCC(C(O)c4ccccc4)N3)cc1)C2 (stereo not drawn) [Example 539]	10 to 99.9	–
C[C@@H](c1ccccn1)N1C2CCC1CN(C(=O)c1ccc(C[C@@H]3CC[C@H]([C@H](O)c4ccccc4)N3)cc1)C2 [Example 540]	100 to 999	–
C[C@H](c1ccccn1)N1CC2CCC1CN2C(=O)c1ccc(C[C@@H]2CC[C@H]([C@H](O)c3ccccc3)N2)cc1 (stereo partly drawn) [Example 541]	100 to 999	–
CC(c1ccccn1)N1CC2CCC1CN2C(=O)c1ccc(CC2CCC(C(O)c3ccccc3)N2)cc1 (stereo not drawn) [Example 542]	100 to 999	–
O=C(c1ccc(C[C@@H]2CC[C@H]([C@H](O)c3ccccc3)N2)cc1)N1C2CCC1CN(c1nccs1)C2 [Example 543]	10 to 99.9	–
O=C(c1ccc(C[C@@H]2CC[C@H]([C@H](O)c3ccccc3)N2)cc1)N1CC2CC1CN2c1nccs1 (stereo partly drawn) [Example 544]	999 to 3000	–
O=C1CN(C(=O)c2ccc(C[C@@H]3CC[C@H]([C@H](O)c4ccccc4)N3)cc2)CCN1Cc1ccccn1 [Example 545]	100 to 999	–
O=C(c1ccc(C[C@@H]2CC[C@H]([C@H](O)c3ccccc3)N2)cc1)N1CCN(c2ccccn2)C(=O)C1 [Example 546]	100 to 999	–
O=C(c1ccc(C[C@@H]2CC[C@H]([C@H](O)c3ccccc3)N2)cc1)N1CCn2cnnc2C1 [Example 548]	100 to 999	–
O=C(c1ccc(C[C@@H]2CC[C@H]([C@H](O)c3ccccc3)N2)cc1)N1CCN2C(=O)CCC2C1 (stereo partly drawn) [Example 550]	100 to 999	–
O=C(c1ccc(C[C@@H]2CC[C@H]([C@H](O)c3ccccc3)N2)cc1)N1CCCN(Cc2ccccn2)CC1 [Example 551]	10 to 99.9	–
O=C(c1ccc(C[C@@H]2CC[C@H]([C@H](O)c3ccccc3)N2)cc1)N1CCCN(c2nccn3ccnc23)CC1 [Example 552]	1 to 9.9	–
O=C(c1ccc(C[C@@H]2CC[C@H]([C@H](O)c3ccccc3)N2)c(Br)c1)N1CC2C(C1)C2n1cnnn1 (stereo partly drawn) [Example 609]	–	EC50 [1, 3]: 1 to 9.9 nM
O=C(c1ccc(C[C@@H]2CC[C@H]([C@H](O)c3ccccc3)N2)c(Br)c1)N1CCC2(CCOC2=O)CC1 [Example 610]	–	EC50 [1, 3]: 1 to 9.9 nM
